Where no end group is shown, it is not given here.
What was measured:
mouse S1c25a10 gene = assay: Suppression of mouse S1c25a10 expression by siRNA transfection (RNAi); type: cell-based; conditions: siRNA to mouse S1c25a10 gene
Excerpt: (§1) First, a silencer siRNA construction kit (Ambion Inc.) was used to synthesize siRNA. Next, in order to determine the optimum sequences for human or mouse S1c25a10, twelve different sequences were examined based on suppression of S1c25a10 expression. FIG. 6(a) and (b) show the relative expression levels of S1c25a10 gene in each of the siRNA-transfected cells.
The nucleotide sequences of siRNA corresponding to the mouse S1c25a10 gene (NM_013770) are also shown below.

S1c25a10 gene = assay: S1c25a10 expression in white adipocytes (WAT) of mouse models, U74A / 25K1.8 chip; type: in vivo; conditions: non-treated C57BL/6N mice defined as 1
Protocol: (§2) A mouse model of obesity induced by administration of an NPY Y5 agonist was prepared in the following manner. Nine- to twelve-week-old male mice (C57BL/6J: Clea Japan) were raised under conditions with a room temperature of 23±2° C. and a humidity of 55±15%, with one mouse in each plastic cage. The mice were raised under a 12 hour lightness/darkness cycle, with lights on at 7:00 am and lights off at 7:00 pm. The mice were also given free access to feed (CE-2 (25.4 wt % protein, 50.3 wt % carbohydrate, 4.4 wt % lipid), Clea Japan) and water.
The mice were anesthetized with 80 mg/kg sodium pentobarbital (Dynabot) and a 28-gauge sterilized brain infusion cannula (Alzet Co.) was stereotactically implanted in the right cerebral ventricle. The cannula was positioned 0.4 mm behind and 0.8 mm to the side of the bregma, and to a depth of 2 mm, and was anchored vertically with respect to the cranial bone using dental cement. A polyvinyl chloride tube was used to connect the cannula to an osmotic pump (Model #2002: Alzet Co.) filled with 10 mM phosphate buffer containing 0.05% bovine serum albumin (BSA). A solution of D-Try^34 NPY in 10 mM PBS (containing 0.05% BSA) (prepared for 5 μg/day) was filled into the pump, and the pump was implanted subcutaneously at the back of the mouse for continuous infusion. An antibiotic (50 mg/kg cefamedine, product of Fujisawa Pharmaceutical Co., Ltd.) was also subcutaneously injected.
The mice were divided into three groups: a normally-fed group given infusion of the solvent alone (vehicle group); an obesity-induced group given infusion of D-Try^34 NPY (NYP Y5 agonist) with an increased food amount (ad lib fed group); and a group given infusion of D-Try^34 NPY but with food restricted to the same amount as the vehicle group (pair-fed group).
as §2, with “MCH (melanin-concentrating hormone)” for “an NPY Y5 agonist”, “Thirteen-week-old” for “Nine- to twelve-week-old”, “food” for “feed”, “water. […]” for “water.”
The mouse models prepared in Preparation Examples 1-4 were used for measurement of S1c25a10 expression in white adipocytes (WAT). The expression levels were measured by treating RNA extracted from white adipocytes from each mouse model using a mouse U74A chip (Affymetrix) and a mouse 25K1.8 chip (Rossetta).

HEK293 cells = assay: DiOC6 staining of mitochondrial proton gradient in HEK293 cells; type: cell-based; conditions: DiOC6-stained HEK293 cells
Protocol: First, HEK293 cells were seeded in a 6-well plate at a density of 2×10^6 cells/well. After 24 hours, S1c25a10 gene cloned in pcDNA 3.1 vector was transfected into the cells using Lipofectamine 2000. As a negative control there were used cells having only the vector transfected, and as positive controls there were used cells having mouse UCP1 transfected and cells having human UCP3 transfected.
After 48 hours from transfection of the gene, the mitochondrial gradient sensitivity-indicating agent DiOC6 (3-3′-dihexyloxacarbocyanine iodide) was used for staining. The staining was performed by treating the cells with 0.3 μM DiOC6 for 20 minutes followed by rinsing twice with PBS. DiOC6 binds to mitochondria in greater amount as the proton gradient increases, emitting strong fluorescence. On the other hand, it binds to mitochondria in lower amount as the proton gradient decreases, resulting in weaker fluorescent intensity.
FIG. 1(a) is a confocal micrograph showing DiOC6-stained HEK293 cells treated with CCCP (carbonyl cyanide m-chlorophenylhydrazone) which uncouples the intracellular mitochondrial proton gradient, and FIG. 1(b) is a photograph of HEK293 cells without CCCP treatment. With the untreated HEK293 cells, the intracellular mitochondria are clearly stained by outlining dots. […] It was thus confirmed that the mitochondria had been stained in a proton gradient-specific manner. […]

human S1c25a10 gene = assay: Suppression of human S1c25a10 expression by siRNA transfection (RNAi); type: cell-based; conditions: siRNA to human S1c25a10 gene
Excerpt: as §1
The sequence of each siRNA is shown below. The “Position” indicates the corresponding nucleic acid position of the human S1c25a10 gene (NM_012140) for each siRNA.
Next, siRNA-transfected cells were prepared. For siRNA transfection, the cells were seeded on a 6-well plate at a density of 2×10^4 cells/well. After 24 hours, the siRNA (H4 or H10) was transfected into the cells using Oligofectamine (Invitrogen). On the 2nd day after transfection, the cells were harvested and RNA was prepared using RNeasy (Qiagen). cDNA was prepared from the RNA by quantitative RT-PCR (Applied Biosystems), for quantitation of the S1c25a10 and ACC1 expression levels.

[1] = administered mice, ad lib fed (FF)

## M8: siRNA to mouse S1c25a10 gene, Position 1159, SEQ ID NOs: 41 and 42 (chain 1 AAGTGGCACCTCTGCCCTACTCCTGTCTC; chain 2 AAAGTAGGGCAGAGGTGCCACCCTGTCTC; listed as DNA, chemistry not given here)
Mouse S1c25a10 gene
  S1c25a10 gene expression (inhibiting effect): particularly powerful inhibiting effects
Mouse S1c25a10 gene; listed as siRNA consisting of nucleic acids of SEQ ID NOs: 41 and 42
  S1c25a10 gene expression (inhibiting effect): powerfully inhibit S1c25a10 expression
Mouse S1c25a10 gene; listed as siRNA consisting of the nucleic acids of SEQ ID NOs: 41 and 42
  S1c25a10 gene expression (inhibiting effect): significantly reduce expression

## melanin-concentrating hormone (DFDMLRCMLGRVYRPCWQV; ends and bridges not checked; cysteine pairing not given here; UniProt P56942 147-165, looked up) [MCH, MCH infused i.c.v. to induce obesity in mice]
S1c25a10 gene; [1]
  Slc25a10 expression: 1.7
S1c25a10 gene; pair feeding (PF) mice
  Slc25a10 expression: 2.4

## N#CC(C#N)=NNc1cccc(Cl)c1 [CCCP, carbonyl cyanide m-chlorophenylhydrazone]
HEK293 cells; confocal micrograph, versus untreated cells
  fluorescent intensity: significantly reduced
HEK293 cells; flow cytometer
  Mean fluorescent intensity: 5.4

## D-Try^34 NPY
S1c25a10 gene; [1]
  Slc25a10 expression: 3.0
S1c25a10 gene; pair feeding (PF) mice
  Slc25a10 expression: 1.9

## H4: siRNA to human S1c25a10 gene, Position 556, SEQ ID NOs: 9 and 10 (chain 1 AAACAGTCTCCTGAGACCCTCCCTGTCTC; chain 2 AAGAGGGTCTCAGGAGACTGTCCTGTCTC; listed as DNA, chemistry not given here)
Human S1c25a10 gene
  S1c25a10 gene expression (inhibiting effect): particularly powerful inhibiting effects
Human S1c25a10 gene; listed as siRNA consisting of nucleic acids of SEQ ID NOs: 9 and 10
  S1c25a10 gene expression (inhibiting effect): powerfully inhibit S1c25a10 expression
Human S1c25a10 gene; listed as siRNA consisting of the nucleic acids of SEQ ID NOs: 9 and 10
  S1c25a10 gene expression (inhibiting effect): significantly reduce expression
